Consider 19 compounds from patent US7803774B2, “Modulators of β-amyloid peptide aggregation” (Praecis Pharmaceuticals, Inc., priority 1999, dated 2010).

Where a name gives a salt, the structure may show the parent alone.

Series [1] addresses T1, Aβ1-40 (Homo sapiens, UniProt P05067).
T1 construct: first Aβ1-40 peptide is dissolved in HFIP
In words: Nucleation assay (turbidity, change in lag time of Aβ aggregation). The class given is biochemical. The settings on record: for Nucleation assay data: footnote *: measured at 0.6 μM of compound, Table II.

Series [2] deals with T1, Aβ1-40. The series is described as above. The class given is biochemical. The settings on record: for Nucleation assay Δ lag 1.25 μM: 1.25 μM test compound; for Nucleation assay Δ lag 1.25 μM / Nucleation assay Δ lag 5 μM / Nucleation assay Δ lag […] / Nucleation assay data 3 μM: 5 μM Aβ1-40; for Nucleation assay Δ lag 1.25 μM / Nucleation assay Δ lag […]: ratio to control lag time; for Nucleation assay Δ lag 5 μM: 5 μM test compound, ratio of lag time with compound to lag time of control; for Nucleation assay Δ lag […]: […] test compound; for Nucleation assay data 0.3 μM: 0.3 μM test compound; for Nucleation assay data 0.3 μM / Nucleation assay data 1 μM / Nucleation assay data 3 μM: ΔLag ratio to control; for Nucleation assay data 0.3 μM / Nucleation assay data 1 μM / Nucleation assay data 3 μM / Nucleation assay data: Table II; for Nucleation assay data 1 μM: 1 μM test compound; for Nucleation assay data 3 μM: 3 μM test compound; for Nucleation assay data: footnote *: measured at 1.25 μM of compound. An excerpt:
The nucleation assay is employed to determine the ability of test compounds to alter (e.g. inhibit) the early events in formation of β-AP fibers from monomeric β-AP. Characteristic of a nucleated polymerization mechanism, a lag time is observed prior to nucleation, after which the peptide rapidly forms fibers as reflected in a linear rise in turbidity. The time delay before polymerization of β-AP monomer can be quantified as well as the extent of formation of insoluble fiber by light scattering (turbidity). Polymerization reaches equilibrium when the maximum turbidity reaches a plateau. The turbidity of a solution of natural β-AP in the absence or presence of various concentrations of a β-amyloid modulator compound is determined by measuring the apparent absorbance of the solution at 405 nm (A405nm) over time. The threshold of sensitivity for the measurement of turbidity is in the range of 15-20 μM β-AP. […] This assay can be performed using stirring or shaking to accelerate polymerization, thereby increasing the speed of the assay. Moreover the assay can be adapted to a 96-well plate format to screen multiple compounds.
To perform the nucleation assay, first Aβ1-40 peptide is dissolved in HFIP (1,1,1,3,3,3-Hexafluoro-2-propanol; Aldrich 10,522-8) at a concentration of 2 mg peptide/ml and incubated at room temperature for 30 min. HFIP-solubilized peptide is sonicated in a waterbath sonicator for 5 min at highest setting, then evaporated to dryness under a stream of argon. The peptide film is resuspended in anhydrous dimethylsulfoxide (DMSO) at a concentration of 6.9 mg/ml (25× concentration), sonicated for 5 min as before, then filtered through a 0.2 micron nylon syringe filter (VWR cat. No. 28196-050). Test compounds are dissolved in DMSO at a 100× concentration. Four volumes of 25×Aβ1-40 peptide in DMSO are combined with one volume of test compound in DMSO in a glass vial, and mixed to produce a 1:1 molar ratio of AP peptide to test compound. For different molar ratios, test compounds are diluted with DMSO prior to addition to Aβ1-40, in order to keep the final DMSO and Aβ1-40 concentrations constant. […] Ten microliters of the mixture is then added to the bottom of a well of a Corning Costar ultra low binding 96-well plate (Coming Costar, Cambridge Mass.; cat. No. 2500). Ninety microliters of water is added to the well, the plate is shaken on a rotary shaken at a constant speed at room temperature for 30 seconds, an additional 100 μl of 2×PTL buffer (20 mM NaH2PO4, 300 mM NaCl, pH 7.4) is added to the well, the plate is reshaken for 30 seconds and a baseline (t=0) turbidity reading is taken by measuring the apparent absorbance at 405 nm using a Bio-Rad Model 450 Microplate Reader. The plate is then returned to the shaker and shaken continuously for 5 hours. Turbidity readings are taken at 15 minute intervals.
β-amyloid aggregation in the absence of any modulators results in enhanced turbidity of the natural β-AP solution (i.e., an increase in the apparent absorbance at 405 nm over time).
The modulator compounds were evaluated in nucleation assays utilizing 5 μM Aβ1-40 and either 5 μM, 2.5 μM, 1.25 μM, 3 μM, 1 μM, or 0.3 μM test compound. The change in lag time (ΔLag) is presented as the ratio of the lag time observed in the of the test compound (at either 5 μM, 2.5 μM, 1.25 μM, 3 μM, 1 μM, or 0.3 μM) to the lag time of the control.

A short description of series [3]: BUI#77: IN VIVO: IV BRAIN LEVELS @ 1 HOUR post 1 mL x 1 min IV. The procedure: Table printed on a drawing sheet, Fig. 1
Title: BUI#77: IN VIVO: IV BRAIN LEVELS @ 1 HOUR post 1 mL x 1 min IV
The patent's description of the figure: FIG. 1 is a table depicting the results from a brain uptake assay.
First reader's note: Rows with only a Structure cell (l-v-f-f-a, TFA. l-v-f-f-l, TFA. l-f-f-v-l) are bold group headings for the rows below them; the asterisk printed in the gap before the UNIT DOSE block is kept in its own unheaded column.

T1 sequence (P05067 672-711): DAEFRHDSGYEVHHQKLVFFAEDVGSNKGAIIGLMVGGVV

Take TFA.H-(Glvffl)-NH2 [PPI-1013]: the “Nucleation assay Δ lag” value at Aβ1-40 [1] (footnote #: measured at 0.6 μM of compound, Table I) was 2; at Aβ1-40 [2] (footnote #: measured at 1.25 μM of compound, Table I), above 3.
In the case of TFA.N-ethyl-(Gaffvl)-NH2 [PPI-969], at Aβ1-40 [2], the “Nucleation assay Δ lag 1.25 μM” value was 3, the “Nucleation assay Δ lag 5 μM” value was above 5 and the “Nucleation assay Δ lag […]” value is above 5.
For the compound 2TFA.H-(lfkvl)-NH2 [PPI-1321], at Aβ1-40 [2], the “Nucleation assay data 0.3 μM” value is on record as below 1, the “Nucleation assay data 1 μM” value is below 1 and the “Nucleation assay data 3 μM” value is listed as below 1.
With TFA.H-(lf-D-Cha-vl)-NH2 [PPI-1318], on Aβ1-40 [2], the “Nucleation assay data 0.3 μM” value amounted to 1, the “Nucleation assay data 1 μM” value amounted to 2 and the “Nucleation assay data 3 μM” value is listed as above 5.
For TFA.H-(lvffa)-dimethylamide [PPI-993], on Aβ1-40 [2], the “Nucleation assay Δ lag 1.25 μM” value was found to be 1, the “Nucleation assay Δ lag 5 μM” value is given as 1 and the “Nucleation assay Δ lag […]” value amounted to 1.
For `CC(C)C[C@@H](N)C(=O)N[C@H](Cc1ccccc1)C(=O)N[C@H](Cc1ccccc1)C(=O)N[C@@H](C(=O)N[C@H](CC(C)C)C(N)=O)C(C)C` [578 | 578, TFA. H-(lffvl)-NH2], in series [3], the “MAX SOLUBILITY | Brain Levels (nM) + CsA | mean” value was determined as 57 nM, the “MAX SOLUBILITY | Brain Levels (nM) | mean” value was found to be 7.6 nM, the “UNIT DOSE (2mg/kg IV) | (+)CsA” value was determined as 16 nM and the “UNIT DOSE (2mg/kg IV) | ALONE” value is reported as 2 nM.
On to TFA.N,N-dimethyl-(Gaffv1)-NH2 [PPI-803], for which, on Aβ1-40 [2], the “Nucleation assay Δ lag 1.25 μM” value was below 1, the “Nucleation assay Δ lag 5 μM” value is listed as below 1 and the “Nucleation assay Δ lag […]” value is below 1.
For `CC(C)C[C@@H](N)C(=O)N[C@@H](C(=O)N[C@H](Cc1ccccc1)C(=O)N[C@H](Cc1ccccc1)C(=O)N[C@H](C)C(N)=O)C(C)C` [655 | 655, TFA. H-(lvffa)-NH2], in series [3], the “MAX SOLUBILITY | Brain Levels (nM) + CsA | mean” value is 50 nM, the “MAX SOLUBILITY | Brain Levels (nM) | mean” value came out at 7.9 nM, the “UNIT DOSE (2mg/kg IV) | (+)CsA” value is 22 nM and the “UNIT DOSE (2mg/kg IV) | ALONE” value worked out at 3 nM.
Consider TFA.N,N-diethyl-(affvl)-NH2 [PPI-1006], for which, on Aβ1-40 [2], the “Nucleation assay Δ lag 1.25 μM” value worked out at 1, the “Nucleation assay Δ lag 5 μM” value turned out to be 1 and the “Nucleation assay Δ lag […]” value worked out at 1.
For the compound TFA.N-methyl-(Gaffvl)-NH2 [PPI-968], at Aβ1-40 [2], the “Nucleation assay Δ lag 1.25 μM” value is listed as 2, the “Nucleation assay Δ lag 5 μM” value is above 5 and the “Nucleation assay Δ lag […]” value is reported as above 5.
Regarding `CN[C@H](CC(C)C)C(=O)N[C@@H](C(=O)N[C@H](Cc1ccccc1)C(=O)N[C@H](Cc1ccccc1)C(=O)N[C@H](C)C(N)=O)C(C)C` [1019 | 1019, TFA. N-methyl-(lvffa)-NH2], in series [3], the “MAX SOLUBILITY | Brain Levels (nM) + CsA | mean” value is 29 nM, the “MAX SOLUBILITY | Brain Levels (nM) | mean” value turned out to be 7.2 nM, the “UNIT DOSE (2mg/kg IV) | (+)CsA” value is listed as 17 nM and the “UNIT DOSE (2mg/kg IV) | ALONE” value was 4 nM.
As for TFA.H-(lf-[F5]f-vl)-NH2 [PPI-1320], on Aβ1-40 [2], the “Nucleation assay data 0.3 μM” value is listed as 1, the “Nucleation assay data 1 μM” value is on record as 3 and the “Nucleation assay data 3 μM” value is above 5.
For TFA.H-(lvffa)-isopropylamide [PPI-992], at Aβ1-40 [2], the “Nucleation assay Δ lag 1.25 μM” value is 1, the “Nucleation assay Δ lag 5 μM” value is recorded as 3 and the “Nucleation assay Δ lag […]” value amounted to 1.
With TFA.N,N-dimethyl-(affvl)-NH2 [PPI-913], on Aβ1-40 [2], the “Nucleation assay Δ lag 1.25 μM” value was determined as 1, the “Nucleation assay Δ lag 5 μM” value is reported as 1 and the “Nucleation assay Δ lag […]” value is given as 1.
Turning to `CC(C)C[C@@H](N)C(=O)N[C@H](Cc1c(F)c(F)c(F)c(F)c1F)C(=O)N[C@H](Cc1ccccc1)C(=O)N[C@@H](C(=O)N[C@H](CC(C)C)C(N)=O)C(C)C` [PPI-1324, TFA.H-(l-[F5]f-fvl)-NH2], in series [3], the “MAX SOLUBILITY | Brain Levels (nM) + CsA | mean” value came to 23 nM, the “MAX SOLUBILITY | Brain Levels (nM) | mean” value is 4.1 nM, the “UNIT DOSE (2mg/kg IV) | (+)CsA” value is reported as 9 nM and the “UNIT DOSE (2mg/kg IV) | ALONE” value is given as 2 nM.
On to 2TFA.H-lvf-NH-NH-fvl-H [PPI-1125], for which the “Nucleation assay data” value on Aβ1-40 [1] is given as 2.0; on Aβ1-40 [2], above 2.5.
Regarding TFA.N-isopropyl-(Gaffvl)-NH2 [PPI-970], on Aβ1-40 [2], the “Nucleation assay Δ lag 1.25 μM” value stood at 1, the “Nucleation assay Δ lag 5 μM” value was above 5 and the “Nucleation assay Δ lag […]” value is given as above 5.
With TFA.N-methyl-(lvffl)-NH2 [PPI-1019], the “Nucleation assay data” value at Aβ1-40 [1] is 2.0; on Aβ1-40 [2] it was above 2.5.
With TFA.N,N-diethyl-(Gaffvl)-NH2 [PPI-1005], on Aβ1-40 [2], the “Nucleation assay Δ lag 1.25 μM” value is 1, the “Nucleation assay Δ lag 5 μM” value turned out to be 3 and the “Nucleation assay Δ lag […]” value is listed as 3.
